Experiments:
[1] = test system: Puccinia recondita f. Sp. Tritici; test: Puccinia recondita f. sp. tritici / wheat / leaf disc preventative (brown rust); assay type: in vivo; settings: foliar, 200 ppm in the applied formulation, wheat leaf segments cv. Kanzler, preventative (inoculated 1 day after application), compared to untreated, read-out: disease control
Procedure: Leaf disks or leaf segments of various plant species are cut from plants grown in a greenhouse. The cut leaf disks or segments are placed in multiwell plates (24-well format) onto water agar. The leaf disks are sprayed with a test solution before (preventative) or after (curative) inoculation. Compounds to be tested are prepared as DMSO solutions (max. 10 mg/ml) which are diluted to the appropriate concentration with 0.025% Tween20 just before spraying. The inoculated leaf disks or segments are incubated under defined conditions (temperature, relative humidity, light, etc.) according to the respective test system. A single evaluation of disease level is carried out 3 to 14 days after inoculation, depending on the pathosystem. Percent disease control relative to the untreated check leaf disks or segments is then calculated. Wheat leaf segments cv. Kanzler were placed on agar in multiwell plates (24-well format) and sprayed with the formulated test compound diluted in water. The leaf disks were inoculated with a spore suspension of the fungus 1 day after application. The inoculated leaf segments were incubated at 19° C. and 75% relative humidity (rh) under a light regime of 12 hours light/12 hours darkness in a climate cabinet and the activity of a compound was assessed as percent disease control compared to untreated when an appropriate level of disease damage appears in untreated check leaf segments (7 to 9 days after application). The following compounds at 200 ppm in the applied formulation give at least 80% disease control in this test when compared to untreated control leaf disks under the same conditions, which show extensive disease development.

[2] = test system: Puccinia recondita f. Sp. Tritici; test: Puccinia recondita f. sp. tritici / wheat / leaf disc curative (brown rust); assay type: in vivo; settings: foliar, 24 h, 200 ppm in the applied formulation, wheat leaf segments cv. Kanzler, curative (applied 1 day after inoculation), compared to untreated, read-out: disease control
Procedure: Leaf disks or leaf segments of various plant species are cut from plants grown in a greenhouse. The cut leaf disks or segments are placed in multiwell plates (24-well format) onto water agar. The leaf disks are sprayed with a test solution before (preventative) or after (curative) inoculation. Compounds to be tested are prepared as DMSO solutions (max. 10 mg/ml) which are diluted to the appropriate concentration with 0.025% Tween20 just before spraying. The inoculated leaf disks or segments are incubated under defined conditions (temperature, relative humidity, light, etc.) according to the respective test system. A single evaluation of disease level is carried out 3 to 14 days after inoculation, depending on the pathosystem. Percent disease control relative to the untreated check leaf disks or segments is then calculated.
Wheat leaf segments cv. Kanzler are placed on agar in multiwell plates (24-well format). The leaf segments are then inoculated with a spore suspension of the fungus. Plates were stored in darkness at 19° C. and 75% relative humidity. The formulated test compound diluted in water was applied 1 day after inoculation. The leaf segments were incubated at 19° C. and 75% relative humidity under a light regime of 12 hours light/12 hours darkness in a climate cabinet and the activity of a compound was assessed as percent disease control compared to untreated when an appropriate level of disease damage appears in untreated check leaf segments (6 to 8 days after application).
The following compounds at 200 ppm in the applied formulation give at least 80% disease control in this test when compared to untreated control leaf disks under the same conditions, which show extensive disease development.

[3] = test system: Glomerella lacenarium (Colletotrichum lagenarium); test: Glomerella lagenarium liquid culture / cucumber / preventative (anthracnose); assay type: cell-based; settings: Colletotrichum orbiculare; 20 ppm in the applied formulation; liquid culture (PDB), growth inhibition measured photometrically 3 to 4 days after application; compared to untreated; read-out: disease control
Procedure: Mycelia fragments or conidia suspensions of a fungus prepared either freshly from liquid cultures of the fungus or from cryogenic storage, are directly mixed into nutrient broth. DMSO solutions of the test compound (max. 10 mg/ml) are diluted with 0.025% Tween20 by a factor of 50 and 10 μl of this solution is pipetted into a microtiter plate (96-well format). The nutrient broth containing the fungal spores/mycelia fragments is then added to give an end concentration of the tested compound. The test plates are incubated in the dark at 24° C. and 96% relative humidity. The inhibition of fungal growth is determined photometrically after 2 to 7 days, depending on the pathosystem, and percent antifungal activity relative to the untreated check is calculated.
Conidia of the fungus from cryogenic storage are directly mixed into nutrient broth (PDB—potato dextrose broth). After placing a (DMSO) solution of test compound into a microtiter plate (96-well format), the nutrient broth containing the fungal spores is added.
The following compounds at 20 ppm in the applied formulation give at least 80% disease control in this test when compared to untreated control under the same conditions, which show extensive disease development.

COCCOC(=O)NCc1ccc(-c2noc(C(F)(F)F)n2)cn1 [Compound 2.24, 2-methoxyethyl N-[[5-[5-(trifluoromethyl)-1,2,4-oxadiazol-3-yl]-2-pyridyl]methyl]carbamate]
≥ 80%: pest or weed control at 200 ppm [1] | pest or weed control at 200 ppm [2] | inhibition of growth at 20 ppm [3]

C=CCOC(=O)NCc1ccc(-c2noc(C(F)(F)F)n2)cn1 [Compound 2.25, allyl N-[[5-[5-(trifluoromethyl)-1,2,4-oxadiazol-3-yl]-2-pyridyl]methyl]carbamate]
≥ 80%: pest or weed control at 200 ppm [1] | pest or weed control at 200 ppm [2] | inhibition of growth at 20 ppm [3]

CCCCOC(=O)NCc1ccc(-c2noc(C(F)(F)F)n2)cn1 [Compound 2.26, butyl N-[[5-[5-(trifluoromethyl)-1,2,4-oxadiazol-3-yl]-2-pyridyl]methyl]carbamate]
≥ 80%: pest or weed control at 200 ppm [1] | pest or weed control at 200 ppm [2] | inhibition of growth at 20 ppm [3]

O=C(NCc1ccc(-c2noc(C(F)(F)F)n2)cn1)OCCCCCl [Compound 2.28, 4-chlorobutyl N-[[5-[5-(trifluoromethyl)-1,2,4-oxadiazol-3-yl]-2-pyridyl]methyl]carbamate]
≥ 80%: pest or weed control at 200 ppm [1] | pest or weed control at 200 ppm [2] | inhibition of growth at 20 ppm [3]

CC(C)OC(=O)NCc1ccc(-c2noc(C(F)(F)F)n2)cn1 [Compound 2.29, isopropyl N-[[5-[5-(trifluoromethyl)-1,2,4-oxadiazol-3-yl]-2-pyridyl]methyl]carbamate]
≥ 80%: pest or weed control at 200 ppm [1] | pest or weed control at 200 ppm [2] | inhibition of growth at 20 ppm [3]

O=C(NCc1ccc(-c2noc(C(F)(F)F)n2)cn1)OCCF [Compound 2.30, 2-fluoroethyl N-[[5-[5-(trifluoromethyl)-1,2,4-oxadiazol-3-yl]-2-pyridyl]methyl]carbamate]
≥ 80%: pest or weed control at 200 ppm [1] | pest or weed control at 200 ppm [2] | inhibition of growth at 20 ppm [3]

O=C(NCc1ccc(-c2noc(C(F)(F)F)n2)cn1)OCCCCl [Compound 2.31, 3-chloropropyl N-[[5-[5-(trifluoromethyl)-1,2,4-oxadiazol-3-yl]-2-pyridyl]methyl]carbamate]
≥ 80%: pest or weed control at 200 ppm [1] | pest or weed control at 200 ppm [2] | inhibition of growth at 20 ppm [3]

CCOC(=O)NCc1ccc(-c2noc(C(F)(F)F)n2)cn1 [Compound 2.32, ethyl N-[[5-[5-(trifluoromethyl)-1,2,4-oxadiazol-3-yl]-2-pyridyl]methyl]carbamate]
≥ 80%: pest or weed control at 200 ppm [1] | pest or weed control at 200 ppm [2] | inhibition of growth at 20 ppm [3]

O=C(NCc1ccc(-c2noc(C(F)(F)F)n2)cn1)OCCCl [Compound 2.33, 2-chloroethyl N-[[5-[5-(trifluoromethyl)-1,2,4-oxadiazol-3-yl]-2-pyridyl]methyl]carbamate]
≥ 80%: pest or weed control at 200 ppm [1] | pest or weed control at 200 ppm [2] | inhibition of growth at 20 ppm [3]

C#CCOC(=O)NCc1ccc(-c2noc(C(F)(F)F)n2)cn1 [Compound 2.35, prop-2-ynyl N-[[5-[5-(trifluoromethyl)-1,2,4-oxadiazol-3-yl]-2-pyridyl]methyl]carbamate]
≥ 80%: pest or weed control at 200 ppm [1] | pest or weed control at 200 ppm [2] | inhibition of growth at 20 ppm [3]

CC(C)(C)NC(=O)NCc1ccc(-c2noc(C(F)(F)F)n2)cc1 [Compound 3.15, 1-tert-butyl-3-[[4-[5-(trifluoromethyl)-1,2,4-oxadiazol-3-yl]phenyl]methyl]urea]
≥ 80%: pest or weed control at 200 ppm [1] | pest or weed control at 200 ppm [2] | inhibition of growth at 20 ppm [3]
